Assay [1] deals with T1, μ-opioid receptor (Homo sapiens (Human), UniProt P35372). The experiment in a line: μ-opioid receptor functional assay (U-2 OS cells). The assay is classed as biochemical. As for the experimental part: (§1) [^35S]GTPγS functional assays were conducted using freshly thawed μ-receptor membranes prepared in-house from a cell line expressing recombinant μ opioid receptor in a HEK-293, CHO or U-2 OS cell background, or purchased from a commercial source (Perkin Elmer, Shelton, Conn.; or DiscovRx, Fremont, Calif.). Assay reactions were prepared by sequentially adding the following reagents to binding buffer (100 mM NaCl, 10 mM MgCl2, 20 mM HEPES, pH 7.4) on ice (final concentrations indicated): membrane protein (0.026 mg/mL), saponin ([…]), GDP ([…]) and [^35S]GTPγS (0.20 nM; Perkin Elmer, Shelton, Conn.). The prepared membrane solution (190 μl/well) was transferred to 96-shallow well polypropylene plates containing 10 μl of 20× concentrated stock solutions of the agonist [D-Ala^2, N-methyl-Phe^4 Gly-ol^5]-enkephalin (DAMGO) prepared in dimethyl sulfoxide (DMSO). Plates were incubated for 30 min at about 25° C. with shaking. Reactions were terminated by rapid filtration onto 96-well Unifilter GF/B filter plates (Perkin Elmer, Shelton, Conn.) using a 96-well tissue harvester (Perkin Elmer, Shelton, Conn.) followed by three filtration washes with 200 μl of ice-cold wash buffer (10 mM NaH2PO4, 10 mM Na2HPO4, pH 7.4). Filter plates were subsequently dried at 50° C. for 2-3 hours. BetaScint scintillation cocktail (Perkin Elmer, Shelton, Conn.) was added (50 μl/well) and plates were counted using a Packard Top-Count for 1 min/well. Data were analyzed using the sigmoidal dose-response curve fitting functions in GraphPad PRISM v. 3.0, or an in-house function for non-linear, sigmoidal dose-response curve-fitting. [^35S]GTPγS functional assays can also be conducted using freshly thawed μ-receptor membranes prepared from a cell line expressing recombinant μ opioid receptor in a CHO-K1 cell background.
(§2) μ GTP EC50 is the concentration of a compound providing 50% of the maximal response for the compound at a μ-opioid receptor.
(§3) μ GTP Emax (%) is the maximal effect elicited by a compound relative to the effect elicited by DAMGO, a standard μ agonist.

For assay [2], the target named is recombinant human kappa opioid receptor (κ) (Homo sapiens (Human), UniProt P41145). The experiment in a line: κ-opioid receptor radioligand dose-displacement binding assay (HEK-293 cells). As for the experimental part: Membranes from HEK-293 cells, CHO cells or U-2 OS cells expressing the recombinant human kappa opioid receptor (κ) were prepared by lysing cells in ice cold hypotonic buffer (2.5 mM MgCl2, 50 mM HEPES, pH 7.4) (10 mL/10 cm dish) followed by homogenization with a tissue grinder/Teflon pestle. Membranes from a cell line naturally expressing kappa opioid receptor can also be used. Membranes were collected by centrifugation at 30,000×g for 15 min at 4° C. and pellets were resuspended in hypotonic buffer to a final concentration of 1-3 mg/mL. Protein concentrations were determined using the BioRad protein assay reagent with bovine serum albumen as standard. Aliquots of κ receptor membranes were stored at −80° C.
Radioligand dose displacement assays used 0.4 nM [^3H]-U69,593 (GE Healthcare, Piscataway, N.J.; 40 Ci/mmole) with 15 μg membrane protein (recombinant κ opioid receptor expressed in HEK 293 cells; in-house prep) in a final volume of 200 μl binding buffer (5% DMSO, 50 mM Trizma base, pH 7.4). Non-specific binding was determined in the presence of 10 μM unlabeled naloxone or U69,593. All reactions were performed in 96-well polypropylene plates for 1 hour at a temperature of about 25° C. Binding reactions were terminated by rapid filtration onto 96-well Unifilter GF/C filter plates (Perkin Elmer, Shelton, Conn.) presoaked in 0.5% polyethylenimine (Sigma). Harvesting was performed using a 96-well tissue harvester (Perkin Elmer, Shelton, Conn.) followed by five filtration washes with 200 μl ice-cold binding buffer. Filter plates were subsequently dried at 50° C. for 1-2 hours. Fifty μl/well scintillation cocktail (Perkin Elmer, Shelton, Conn.) was added and plates were counted in a Packard Top-Count for 1 min/well.
(§4) In TABLE 3, binding affinity of certain Compounds of the Invention to the μ- and κ-opioid receptors was determined as described above using HEK-293 cells.

The target in assay [3] is T1, μ-opioid receptor. Briefly: μ-opioid receptor [35S]GTPγS functional assay (HEK-293 cells). The assay is classed as biochemical. As for the experimental part:
as §1, §2, §3
In TABLE 4, activity response of certain Compounds of the Invention to the μ- and κ-opioid receptors was determined as described above for functional assays using HEK-293 cells.

Assay [4] deals with T1, μ-opioid receptor. The experiment in a line: μ-opioid receptor radioligand dose-displacement binding assay (HEK-293 cells). The protocol: Radioligand dose-displacement binding assays for μ-opioid receptors used 0.3 nM [^3H]-diprenorphine (Perkin Elmer, Shelton, Conn.), with […] membrane protein/well in a final volume of 500 μl binding buffer (10 mM MgCl2, 1 mM EDTA, 5% DMSO, 50 mM HEPES, pH 7.4). Reactions were carried out in the absence or presence of increasing concentrations of unlabeled naloxone. All reactions were conducted in 96-deep well polypropylene plates for 2 hours at room temperature. Binding reactions were terminated by rapid filtration onto 96-well Unifilter GF/C filter plates (Perkin Elmer, Shelton, Conn.), presoaked in 0.5% polyethylenimine using a 96-well tissue harvester (Perkin Elmer, Shelton, Conn.) followed by performing three filtration washes with 500 μl of ice-cold binding buffer. Filter plates were subsequently dried at 50° C. for 2-3 hours. BetaScint scintillation cocktail (Perkin Elmer, Shelton, Conn.) was added (50 μl/well), and plates were counted using a Packard Top-Count for 1 min/well. The data were analyzed using the one-site competition curve fitting functions in GraphPad PRISM™ v. 3.0 or higher (San Diego, Calif.), or an in-house function for one-site competition curve-fitting.
as §4

The next assay concerns the target κ-opioid receptor (Homo sapiens (Human), UniProt P41145). Briefly: κ-opioid receptor functional assay (U-2 OS cells). The assay is classed as biochemical. As for the experimental part:
Functional [^35S]GTPγS binding assays were conducted as follows. κ opioid receptor membrane solution was prepared by sequentially adding final concentrations of 0.026 μg/μl κ membrane protein (in-house), 10 μg/mL saponin, 3 μM GDP and 0.20 nM [^35S]GTPγS to binding buffer (100 mM NaCl, 10 mM MgCl2, 20 mM HEPES, pH 7.4) on ice. The prepared membrane solution (190 μl/well) was transferred to 96-shallow well polypropylene plates containing 10 μl of 20× concentrated stock solutions of agonist prepared in DMSO. Plates were incubated for 30 min at a temperature of about 25° C. with shaking. Reactions were terminated by rapid filtration onto 96-well Unifilter GF/B filter plates (Perkin Elmer, Shelton, Conn.) using a 96-well tissue harvester (Packard) and followed by three filtration washes with 200 μl ice-cold binding buffer (10 mM NaH2PO4, 10 mM Na2HPO4, pH 7.4). Filter plates were subsequently dried at 50° C. for 2-3 hours. Fifty μl/well scintillation cocktail (Perkin Elmer, Shelton, Conn.) was added and plates were counted in a Packard Top-Count for 1 min/well.
κ GTP EC50 is the concentration of a compound providing 50% of the maximal response for the compound at a κ receptor.
κ GTP Emax (%) is the maximal effect elicited by a compound relative to the effect elicited by U69,593.
The following TABLE 5 provides results on the activity response of certain Compounds of the Invention at the μ- and κ-opioid receptors determined as described above using U-2 OS cells.

The mark [5] stands for this setting: U-2 OS cells, relative to DAMGO.
Setting [6] is: HEK-293 cells, relative to DAMGO.
The mark [7] stands for this setting: U-2 OS cells, relative to U69,593.

Like-named read-outs stand apart in the source and are kept apart here.

For the compound “1-Chlorophenyl-3-((4bR,6S,8aS,9R)-11-(cyclopropylmethyl)-3-methoxy-5,6,7,8,9,10-hexahydro-9,4b-(epiminoethano)-8a,6-(epoxymethano)phenanthren-6-yl)urea [Compound 25]”, the EC50 at μ-opioid receptor [1] (U-2 OS cells, read-out: Opioid Receptor μ EC50) was 0.00433 ± 0.00015 µM; at μ-opioid receptor [3] (HEK-293 cells, read-out: Opioid Receptor μ EC50), 0.0866 ± 0.0115 µM; on κ-opioid receptor (U-2 OS cells, read-out: Opioid Receptor κ EC50), 0.0161 ± 0.00082 µM. The “Opioid Receptor μ Emax (%)” value at μ-opioid receptor [1] (setting [5]) is listed as 99.7 ± 0.88%; on μ-opioid receptor [3] (setting [6]), 18.3 ± 0.88%. For the same compound, the inhibition constant Ki stood at 0.00256 ± 0.00036 µM in assay [2] and 0.00351 ± 0.00045 µM at μ-opioid receptor [4]. Besides, on κ-opioid receptor (setting [7]), the “Opioid Receptor κ Emax (%)” value worked out at 121.3 ± 4.67%.
On to `COc1ccc2c(c1)[C@]13CCN(CC4CC4)[C@H](C2)[C@]12CC[C@@](N(C)C)(CO2)C3` [Compound 28, (4bR,6S,8aS,9R)-11-(cyclopropylmethyl)-3-methoxy-N,N-dimethyl-5,6,7,8,9,10-hexahydro-9,4b-(epiminoethano)-8a,6-(epoxymethano)phenanthren-6-amine], for which the EC50 at μ-opioid receptor [1] is 0.339 ± 0.0316 µM; on μ-opioid receptor [3] it was 1.92 ± 0.693 µM; on κ-opioid receptor, 0.132 ± 0.0257 µM. Besides, the Emax came to 68.7 ± 0.67% on μ-opioid receptor [1] (setting [5]), 18.8 ± 1.46% at μ-opioid receptor [3] (setting [6]) and 107 ± 2.4% on κ-opioid receptor (setting [7]).
On to `COc1ccc2c(c1)[C@]13CCN(CC4CC4)[C@H](C2)[C@]12CC[C@@](Nc1ccc(C(C)(C)C)cc1)(CO2)C3` [Compound 29, (4bR,6S,8aS,9R)—N-(4-tert-butyl)phenyl-11-(cyclopropylmethyl)-3-methoxy-5,6,7,8,9,10-hexahydro-9,4b-(epiminoethano)-8a,6-(epoxymethano)phenanthren-6-amine], for which the concentration for a half-maximal effect (EC50) at μ-opioid receptor [1] is 0.00202 ± 0.00028 µM; on μ-opioid receptor [3] it was more than 20 µM; on κ-opioid receptor, 0.00308 ± 0.00032 µM. Besides, the Emax stood at 43.3 ± 2.4% at μ-opioid receptor [1] (setting [5]), 7.5 ± 1.55% at μ-opioid receptor [3] (setting [6]) and 113 ± 4.41% on κ-opioid receptor (setting [7]).
Regarding `COc1ccc2c(c1)[C@]13CCN(CC4CC4)[C@H](C2)[C@]12CC[C@@](Nc1ccccc1)(CO2)C3` [Compound 30, (4bR,6S,8aS,9R)-11-(cyclopropylmethyl)-3-methoxy-N-phenyl-5,6,7,8,9,10-hexahydro-9,4b-(epiminoethano)-8a,6-(epoxymethano)phenanthren-6-amine], the EC50 at μ-opioid receptor [1] worked out at 0.00993 ± 0.00087 µM; at μ-opioid receptor [3], 0.0836 ± 0.0234 µM; on κ-opioid receptor, 0.00014 ± 3.9e-05 µM. Moreover, the Emax at μ-opioid receptor [1] (setting [5]) was 69 ± 2.65%; on μ-opioid receptor [3] (setting [6]) it was 20.3 ± 0.67%; at κ-opioid receptor (setting [7]), 105 ± 3.53%.
Regarding `COc1ccc2c(c1)[C@]13CCN(CC4CC4)[C@H](C2)[C@]12CC[C@@](N1CCOCC1)(CO2)C3` [Compound 31, (4bR,6S,8aS,9R)-11-(cyclopropylmethyl)-3-methoxy-6-morpholino-5,6,7,8,9,10-hexahydro-9,4b-(epiminoethano)-8a,6-(epoxymethano)phenanthrene], the figures for the EC50 on μ-opioid receptor [1], on μ-opioid receptor [3] and on κ-opioid receptor were 0.147 ± 0.00761 µM, 0.887 ± 0.278 µM and 0.03 ± 0.0072 µM, respectively. The Emax on μ-opioid receptor [1] (setting [5]) came out at 38.7 ± 2.96%; on μ-opioid receptor [3] (setting [6]), 9 ± 1.15%; at κ-opioid receptor (setting [7]) it was 103.7 ± 0.33%.
As for `COc1ccc2c(c1)[C@]13CCN(CC4CC4)[C@H](C2)[C@]12CC[C@@](N1CCCC1)(CO2)C3` [Compound 32, (4bR,6S,8aS,9R)-11-(cyclopropylmethyl)-3-methoxy-6-(pyrrolidin-1-yl)-5,6,7,8,9,10-hexahydro-9,4b-(epiminoethano)-8a,6-(epoxymethano)phenanthrene], the EC50 amounted to 0.255 ± 0.0266 µM at μ-opioid receptor [1], 1.38 ± 0.234 µM at μ-opioid receptor [3] and 0.0266 ± 0.00592 µM on κ-opioid receptor. Moreover, the Emax came to 69 ± 2.89% on μ-opioid receptor [1] (setting [5]), 20.7 ± 0.33% at μ-opioid receptor [3] (setting [6]) and 104 ± 3.61% on κ-opioid receptor (setting [7]).
As to `COc1ccc2c(c1)[C@]13CCN(CC4CC4)[C@H](C2=O)[C@]12CC[C@](O)(C3)C(=O)O2` [Compound 33, (4bR,6S,8aS,9S)-11-(cyclopropylmethyl)-6-hydroxy-3-methoxy-5,6,7,8-tetrahydro-9,4b-(epiminoethano)-8a,6-(epoxymethano)phenanthrene-10,15(9H)-dione], the Ki in assay [2] was 3.35 ± 0.325 µM; at μ-opioid receptor [4] (bound given in μM), more than 20 µM.
Regarding `COc1ccc2c(c1)[C@]13CCN(CC4CC4)[C@H]([C@@H]2O)[C@]12CC[C@](O)(C3)C(=O)O2` [Compound 34, (4bR,6S,8aS,9R,10R)-11-(cyclopropylmethyl)-6,10-dihydroxy-3-methoxy-5,6,7,8,9,10-hexahydro-9,4b-(epiminoethano)-8a,6-(epoxymethano)phenanthren-15-one], the inhibition constant Ki (in assay [2] (bound given in μM); at μ-opioid receptor [4] (bound given in μM)) was more than 20 µM in each case.
For the compound `CN1CC[C@]23C[C@@]4(N)CC[C@@]2(OC4)[C@H]1Cc1ccc(O)cc13` [Compound 35, (4bR,6S,8aS,9R)-6-amino-11-methyl-5,6,7,8,9,10-hexahydro-9,4b-(epiminoethano)-8a,6-(epoxymethano)phenanthren-3-ol], the EC50 on μ-opioid receptor [3] turned out to be 0.291 ± 0.0232 µM. The Emax on μ-opioid receptor [3] (setting [6]) was 50.3 ± 2.33%.
Taken in the same sequence, the figures for `CN[C@]12CC[C@@]3(OC1)[C@H]1Cc4ccc(O)cc4[C@@]3(CCN1CC1CC1)C2` [Compound 37, (4bR,6S,8aS,9R)-11-(cyclopropylmethyl)-6-(methylamino)-5,6,7,8,9,10-hexahydro-9,4b-(epiminoethano)-8a,6-(epoxymethano)phenanthren-3-ol] were 0.00344 ± 0.00078 µM and 19 ± 1%.

A word on the EC50: it is the concentration giving half of the maximal effect. One may read the Ki as a dissociation constant, usually derived from enzyme kinetics or from competition with a known ligand. A word on the Emax: it is the greatest response seen or fitted, relative to the assay's reference.

(Values after patent publication US9862726B2, “Opioid receptor modulating oxabicyclo[2.2.2]octane morphinans” (PURDUE PHARMA L.P., priority 2013, dated 2018).)
